From patent US11839613B2, “Pyrimidine derivatives as PGE2 receptor modulators” (IDORSIA PHARMACEUTICALS LTD, priority 2017, dated 2023)

What was measured:
[1] = target: EP2 (Homo sapiens (Human), UniProt P43116); assay: hEP2 cAMP assay (SF295 glioblastoma cells, HTRF cAMP); format: cell-based; conditions: antagonistic activity
From the text: (§1) Human tumor cell lines expressing endogenously either EP4 or EP2 are used and cAMP accumulation in cells upon PGE2 stimulation is monitored. SF295 glioblastoma cells express high endogenous EP2 and no EP4, whereas BT549 breast cancer cells, express high endogenous EP4 levels and very low EP2 levels.
(§2) As a detection method for cAMP the HTRF (homogeneous time resolved fluorescence) Cisbio kit (HTRF cAMP dynamic 2 kit 20'000 tests Cisbio Cat. #62AM4PEC) was used, which is based on a competitive immunoassay using a Cryptate-labeled anti-cAMP antibody and d2-labeled cAMP. Native cAMP produced by cells or unlabeled cAMP (for the standard curve) compete with exogenously added d2-labeled cAMP (acceptor) for binding to monoclonal anti-cAMP-Eu3+Cryptate (donor). A FRET signal (Fluorescence Resonance Energy Transfer) is obtained only if the labeled anti-cAMP antibody binds the d2 labelled cAMP, thus the specific signal (i.e. energy transfer) is inversely proportional to the concentration of cAMP in the standard or sample.
(§3) Cells are counted washed and resuspended in assay buffer (AB; HBSS, 20 mM HEPES, 0.2% BSA; 2 mM IBMX).
Plate is pre-incubated 45 minutes at RT. […] Plate is incubated 30 minutes at RT.

[2] = target: EP4 (Homo sapiens (Human), UniProt P35408); assay: hEP4 cAMP assay (BT549 breast cancer cells, HTRF cAMP); format: cell-based; conditions: antagonistic activity, PGE2 6 nM
From the text: as §1, §2, §3
Plate is pre-incubated 45 minutes at RT. Subsequently, 2.5 microliters of PGE2 (final conc. 6 nM) are transferred into the assay plate. Plate is incubated 30 minutes at RT.

[3] = target: PTGER4 (EP4) (Homo sapiens (Human), UniProt P35408); assay: cell-based
[4] = target: PTGER2 (EP2) (Homo sapiens (Human), UniProt P43116); assay: hEP2 b-arrestin assay (PathHunter HEK 293 PTGER2 b-arrestin cells); format: cell-based; conditions: antagonistic activity, beta-arrestin assay; read-out: hEP2 b-arr IC50
Description: Plate is pre-incubated 15 minutes at 37° C. Then five microliters of PGE2 (final conc. 5 μM) are transferred into the assay plate. Plate is incubated 120 minutes at 37° C.
(each concentration is measured in duplicate)

Chain of PTGER2 (EP2) (P43116 whole entry): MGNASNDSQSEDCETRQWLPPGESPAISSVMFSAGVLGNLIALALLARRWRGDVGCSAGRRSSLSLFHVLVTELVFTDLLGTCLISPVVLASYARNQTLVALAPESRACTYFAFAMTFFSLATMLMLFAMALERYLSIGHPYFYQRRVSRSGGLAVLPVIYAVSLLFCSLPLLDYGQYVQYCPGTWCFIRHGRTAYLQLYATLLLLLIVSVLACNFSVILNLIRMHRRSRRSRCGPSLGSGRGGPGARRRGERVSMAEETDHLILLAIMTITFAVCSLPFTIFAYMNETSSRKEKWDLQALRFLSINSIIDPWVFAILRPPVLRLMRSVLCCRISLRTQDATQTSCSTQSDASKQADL
Chain of EP2 (P43116 whole entry): as above
Chain of EP4 (P35408 whole entry): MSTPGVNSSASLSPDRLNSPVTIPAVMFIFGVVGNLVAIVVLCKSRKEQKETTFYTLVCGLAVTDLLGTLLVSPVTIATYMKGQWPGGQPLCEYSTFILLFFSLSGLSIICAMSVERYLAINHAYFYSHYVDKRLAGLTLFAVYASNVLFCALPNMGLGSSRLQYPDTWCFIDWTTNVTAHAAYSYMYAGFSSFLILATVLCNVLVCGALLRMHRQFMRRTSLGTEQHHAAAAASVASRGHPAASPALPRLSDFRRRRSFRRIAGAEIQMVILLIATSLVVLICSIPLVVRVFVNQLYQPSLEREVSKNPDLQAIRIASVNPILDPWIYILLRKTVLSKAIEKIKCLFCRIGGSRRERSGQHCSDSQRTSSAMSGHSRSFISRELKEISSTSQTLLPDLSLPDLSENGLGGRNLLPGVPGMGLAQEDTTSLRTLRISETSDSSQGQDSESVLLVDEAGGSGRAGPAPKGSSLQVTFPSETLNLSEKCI
Chain of PTGER4 (EP4) (P35408 whole entry): as above

| SMILES | IC50 [1] [µM] | IC50 [2] [µM] | IC50 [3] [µM] | IC50 [4] [µM] |
| --- | --- | --- | --- | --- |
| CCOc1cc(-c2cc(NCCc3ccc4ccccc4c3)ncn2)sc1C(=O)O [Ex 36, 3-Ethoxy-5-[6-(2-naphthalen-2-yl-ethylamino)-pyrimidin-4-yl]-thiophene-2-carboxylic acid] | 0.557 | 0.018 | 0.02 |  |
| CCOc1cc(-c2cc(NCCc3cc4ccccc4cc3Cl)ncn2)sc1C(=O)O [Ex 62, 5-{6-[2-(3-Chloro-naphthalen-2-yl)-ethylamino]-pyrimidin-4-yl}-3-ethoxy-thiophene-2-carboxylic acid] | 0.301 | 0.032 | 0.016 |  |
| CSc1cc2c(cc1CCNc1cc(-c3ccc(C(=O)O)c(OC4CCC4)c3)ncn1)OCCO2 [Ex 70, 2-Cyclobutoxy-4-{6-[2-(7-methylsulfanyl-2,3-dihydro-benzo[1,4]dioxin-6-yl)-ethylamino]-pyrimidin-4-yl}-benzoic acid] | 0.441 | 0.038 | 0.209 |  |
| CCOc1cc(-c2cc(NCCc3ccc4ccccc4c3N)ncn2)sc1C(=O)O [Ex 71, 5-{6-[2-(1-Amino-naphthalen-2-yl)-ethylamino]-pyrimidin-4-yl}-3-ethoxy-thiophene-2-carboxylic acid] | 0.301 | 0.039 | 0.024 |  |
| CCOc1cc(-c2cc(NCCc3cc4ccoc4cc3OC)ncn2)ccc1OC(C)C(=O)O (stereo not drawn) [Ex 233, 2-(2-Ethoxy-4-{6-[2-(6-methoxy-benzofuran-5-yl)-ethylamino]-pyrimidin-4-yl}-phenoxy)-propionic acid] | 0.076 | 0.322 |  | 0.029 |
| CCOc1cc(-c2cc(NCCc3cc4ccoc4cc3F)ncn2)ccc1OC(C)C(=O)O (stereo not drawn) [Ex 236] | 0.147 | 0.327 |  | 0.121 |
| CCOc1cc(-c2cc(NCCc3cc4c(cc3OC)OCO4)ncn2)ccc1OCC(=O)O [Ex 239] | 0.222 | 0.346 |  | 0.134 |
| CCOc1cc(-c2cc(NCCc3cc4c(cnn4C)cc3OC)ncn2)sc1C(=O)O [Ex 251] | 0.132 | 0.369 |  | 0.105 |
| O=C(O)c1ccc(-c2cc(NCCc3ccc4cc[nH]c4c3)ncn2)cc1OC1CCC1 [Ex 278, 2-Cyclobutoxy-4-{6-[2-(1H-indol-6-yl)-ethylamino]-pyrimidin-4-yl}-benzoic acid] | 0.187 | 0.477 |  | 0.281 |
| CCOc1cc(-c2cc(NCCc3cc4c(cc3OC)OCO4)ncn2)ccc1C(=O)O [Ex 315, 2-Ethoxy-4-{6-[2-(6-methoxy-benzo[1,3]dioxol-5-yl)-ethylamino]-pyrimidin-4-yl}-benzoic acid] | 0.073 | 0.703 |  | 0.134 |
| Fc1cc2ncccc2c(F)c1CCNc1cc(-c2ccc3cnccc3c2)ncn1 [Ex 318, [2-(5,7-Difluoro-quinolin-6-yl)-ethyl]-(6-isoquinolin-6-yl-pyrimidin-4-yl)-amine] | 0.247 | 0.753 |  | 0.408 |

Further molecules by falling IC50 [1], results first:

| IC50 [1] [µM] | IC50 [2] [µM] | IC50 [3] [µM] | IC50 [4] [µM] | SMILES |
| --- | --- | --- | --- | --- |
| 9.39 | 0.03 | 0.013 |  | CCOc1cc(-c2cc(NCCc3ccc4c(c3)OCCC4)ncn2)sc1C(=O)O [Ex 58, 5-[6-(2-Chroman-7-yl-ethylamino)-pyrimidin-4-yl]-3-ethoxy-thiophene-2-carboxylic acid] |
| 0.912 | 0.012 | 0.058 |  | CCOc1cc(-c2cc(NCCc3cc4c(cc3OC)OCCCO4)ncn2)sc1C(=O)O [Ex 21, 3-Ethoxy-5-{6-[2-(8-methoxy-3,4-dihydro-2H-benzo[b][1,4]dioxepin-7-yl)-ethylamino]-pyrimidin-4-yl}-thiophene-2-carboxylic acid] |
| 0.892 | 0.039 | 0.037 |  | CN1CCCc2cc(CCNc3cc(-c4cc(C(F)(F)F)c(C(=O)O)s4)ncn3)c(F)cc21 [Ex 72, 5-{6-[2-(7-Fluoro-1-methyl-1,2,3,4-tetrahydro-quinolin-6-yl)-ethylamino]-pyrimidin-4-yl}-3-trifluoromethyl-thiophene-2-carboxylic acid] |
| 0.378 | 0.055 | 0.026 |  | CCOc1cc(-c2cc(NCCc3ccc4ccccc4c3Cl)ncn2)sc1C(=O)O [Ex 90, 5-{6-[2-(1-Chloro-naphthalen-2-yl)-ethylamino]-pyrimidin-4-yl}-3-ethoxy-thiophene-2-carboxylic acid] |
| 0.332 | 0.887 |  | 0.441 | CCOc1cc(-c2cc(NCCc3cc4c(cc3OC(F)F)OCO4)ncn2)ccc1C(=O)O [Ex 325] |
| 0.32 | 0.031 | 0.003 |  | CCOc1cc(-c2cc(NCCc3cc4c(cc3OC)CCCC4)ncn2)sc1C(=O)O [Ex 60, 3-Ethoxy-5-{6-[2-(3-methoxy-5,6,7,8-tetrahydro-naphthalen-2-yl)-ethylamino]-pyrimidin-4-yl}-thiophene-2-carboxylic acid] |
| 0.304 | 0.035 | 0.033 |  | CCOc1cc(-c2cc(NCCc3ccc4c(ccn4C)c3)ncn2)sc1C(=O)O [Ex 65, 3-Ethoxy-5-{6-[2-(1-methyl-1H-indol-5-yl)-ethylamino]-pyrimidin-4-yl}-thiophene-2-carboxylic acid] |
| 0.283 | 0.021 | 0.024 |  | CCOc1cc(-c2cc(NCCc3ccc4c(c3)CCC4)ncn2)sc1C(=O)O [Ex 44, 3-Ethoxy-5-[6-(2-indan-5-yl-ethylamino)-pyrimidin-4-yl]-thiophene-2-carboxylic acid] |
| 0.277 | 0.007 | 0.013 |  | CCOc1cc(-c2cc(NCCc3ccc4ccccc4c3F)ncn2)sc1C(=O)O [Ex 11, 3-Ethoxy-5-{6-[2-(1-fluoro-naphthalen-2-yl)-ethylamino]-pyrimidin-4-yl}-thiophene-2-carboxylic acid] |
| 0.249 | 1.04 |  | 0.158 | Fc1cc2ncccc2c(F)c1CCNc1cc(-c2ccc3[nH]ccc3c2)ncn1 [Ex 330, [2-(5,7-Difluoro-quinolin-6-yl)-ethyl]-[6-(1H-indol-5-yl)-pyrimidin-4-yl]-amine] |
| 0.171 | 0.368 |  | 0.196 | Cn1[nH]c(=O)c2ccc(-c3cc(NCCc4ccc5cc[nH]c5c4)ncn3)cc21 [Ex 249] |
| 0.159 | 0.92 |  | 0.296 | CCOc1cc(-c2cc(NCCc3cc4c(cc3C)OCCO4)ncn2)ccc1C(=O)O [Ex 327] |
| 0.102 | 0.468 |  | 0.067 | CCSc1cc(-c2cc(NCCc3cc4ccoc4cc3F)ncn2)ccc1C(=O)O [Ex 275] |
| 0.086 | 0.515 |  | 0.198 | CCOc1cc(-c2cc(NCCc3cc4c(cc3OC)OCCO4)ncn2)ccc1C(=O)O [Ex 286] |
| 0.085 | 0.523 |  | 0.156 | Cc1cc2c(cc1CCNc1cc(-c3ccc(C(=O)O)c(OC4CCC4)c3)ncn1)OC=CO2 [Ex 288] |
| 0.075 | 0.343 |  | 0.055 | CSc1cc(-c2cc(NCCc3cc4ccoc4cc3F)ncn2)ccc1C(=O)O [Ex 238, 4-{6-[2-(6-Fluoro-benzofuran-5-yl)-ethylamino]-pyrimidin-4-yl}-2-methylsulfanyl-benzoic acid] |
| 0.026 | 0.002 | 0.001 |  | CCOc1cc(-c2cc(NCCc3c(OC)cc4ccccc4c3F)ncn2)sc1C(=O)O [Ex 3, 3-Ethoxy-5-{6-[2-(1-fluoro-3-methoxy-naphthalen-2-yl)-ethylamino]-pyrimidin-4-yl}-thiophene-2-carboxylic acid] |
